# Source: patent publication US10774064B2 (Cadent Therapeutics, Inc., priority 2016, dated 2020)
# Target: T1, small-conductance Ca2+-activated K+ channels (SK channels, subtype 2) (Homo sapiens, UniProt Q9H2S1)
# T1 construct: expressed in transfected cells; host or cells: HEK293
# Assay: whole-cell patch-clamp of ionic current through SK2 channels in HEK293 cells (SC100)
# Type: cell-based
# Conditions: whole-cell patch-clamp, HEK293 cells expressing SK2 channels; concentration that increases the basal current by 100%
# In short: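 Whole-cell patch-clamp recording of current in HEK293 cells expressing SK2 channels. SC100 is the compound concentration that increases basal current by 100%.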
row,Compound,SC100 (μM)
1,Cc1csc(-c2nc(NC3CCC(F)(F)CC3)cc(N3CCN(C(C)C)CC3)n2)n1 [IN10864-031-P1],+++ (+++ means <200 nM)
2,Cc1csc(-c2nc(NC3CCC(F)(F)CC3)cc(N3CCC(F)CC3)n2)n1 [IN10864-33.P1],++ (++ means 200 nM-1000 nM)
3,Cc1csc(-c2nc(NC3CCC(F)(F)CC3)cc(N3CCCOCC3)n2)n1 [IN10864-034.P1],+++ (+++ means <200 nM)
4,Cc1csc(-c2nc(NC3CCC(F)(F)CC3)cc(N3CCOC(C)(C)C3)n2)n1 [IN10864-043-P1],+++ (+++ means <200 nM)
5,COCC1CN(c2cc(NC3CCC(F)(F)CC3)nc(-c3nc(C)cs3)n2)CCN1C (stereo not drawn) [IN10864-060-P1],+++ (+++ means <200 nM)
6,Cc1csc(-c2nc(NC3CCC(F)(F)CC3)cc(N3CCN(C)C(CO)C3)n2)n1 (stereo not drawn) [IN10864-066-P1],++ (++ means 200 nM-1000 nM)
7,COC1CCCN(c2cc(NC3CCC(F)(F)CC3)nc(-c3nc(C)cs3)n2)C1 (stereo not drawn) [IN10876-013-P1],++ (++ means 200 nM-1000 nM)
8,CC(=O)c1cc(NC2CCC(F)(F)CC2)nc(-n2ccc(C)n2)n1 [IN10876-041-P2],+ (+ means >1 uM)
9,Cc1ccn(-c2nc(NC3CCC(F)(F)CC3)cc(C(C)O)n2)n1 (stereo not drawn) [IN10876-051-P1],+ (+ means >1 uM)
10,"CCOC(C)c1cc(NC2CCC(F)(F)CC2)nc(-n2ccc(C)n2)n1 (stereo not drawn) [IN10876-061-P1, N-(4,4-difluorocyclohexyl)-6-(1-ethoxyethyl)-2-(3-methyl-1H-pyrazol-1-yl)pyrimidin-4-amine]",+ (+ means >1 uM)
11,"Cc1ccn(-c2nc(NC3CCC(F)(F)CC3)cc(C(C)(F)F)n2)n1 [IN10876-069-P1, N-(4,4-difluorocyclohexyl)-6-(1,1-difluoroethyl)-2-(3-methyl-1H-pyrazol-1-yl)pyrimidin-4-amine]",+ (+ means >1 uM)
12,"Cc1ccn(-c2nc(NC3CCC(F)(F)CC3)cc(C(C)F)n2)n1 (stereo not drawn) [IN10876-080-P1, N-(4,4-difluorocyclohexyl)-6-(1-fluoroethyl)-2-(3-methyl-1H-pyrazol-1-yl)pyrimidin-4-amine]",+ (+ means >1 uM)
13,"Cc1csc(-c2nc(NC3CCC(F)(F)CC3)cc(C(C)(F)F)n2)n1 [IN10876-082-P1, N-(4,4-difluorocyclohexyl)-6-(1,1-difluoroethyl)-2-(4-methylthiazol-2-yl)pyrimidin-4-amine]",+ (+ means >1 uM)
14,"Cc1csc(-c2nc(NC3CCC(F)(F)CC3)cc(C(C)F)n2)n1 (stereo not drawn) [IN10876-092-P1, N-(4,4-difluorocyclohexyl)-6-(1-fluoroethyl)-2-(4-methylthiazol-2-yl)pyrimidin-4-amine]",++ (++ means 200 nM-1000 nM)
15,Cc1csc(-c2nc(NC3CCC(F)(F)CC3)cc(N3CCN(C)CC3)n2)n1 [IN10880-014-P1],++ (++ means 200 nM-1000 nM)
16,CCC1CN(c2cc(NC3CCC(F)(F)CC3)nc(-c3nc(C)cs3)n2)CCO1 (stereo not drawn) [IN10880-018-P1],++ (++ means 200 nM-1000 nM)
17,Cc1csc(-c2nc(C#N)cc(NC3CCC(F)(F)CC3)n2)n1 [IN10880-029-P1],+ (+ means >1 uM)
18,CC(=O)NC1CCN(c2cc(NC3CCC(F)(F)CC3)nc(-c3nc(C)cs3)n2)CC1 [IN10880-032-P1],++ (++ means 200 nM-1000 nM)
19,Cc1csc(-c2nc(NC3CCC(F)(F)CC3)cc(N3CCOC(CNC(=O)OC(C)(C)C)C3)n2)n1 (stereo not drawn) [IN10880-033-P1],++ (++ means 200 nM-1000 nM)
20,"Cc1csc(-c2nc(NC3CCC(F)(F)CC3)cc(C(C)O)n2)n1 (stereo not drawn) [IN10880-035-P1, 1-(6-((4,4-difluorocyclohexyl)amino)-2-(4-methylthiazol-2-yl)pyrimidin-4-yl) ethan-1-ol]",++ (++ means 200 nM-1000 nM)
21,Cc1ccn(-c2nc(NCC3CCCO3)cc(C(C)O)n2)n1 (stereo not drawn) [IN10880-055-P1],+ (+ means >1 uM)
